The nature of data set [1]: Metabolic stability in presence of BSA. The format is ADME.
In the next data set the test system is Caco-2. Kind of data set: Metabolic stability in human Caco-2 cell homogenate. The format is ADME, cell-based.
A short description of data set [2]: Toxicity against rat erythrocytes assessed as hemolysis upto 1000 uM. As to conditions: erythrocyte. Type of data set: cell-based.
The nature of data set [3]: Apparent permeability across human Caco-2 cells. The format is ADME, cell-based. For orientation: Caco-2 monolayers are a common model of the intestinal barrier.
Data set [4] can be described thus: Toxicity against rat erythrocytes assessed as hemolysis upto 1000 uM in presence of BSA. The format is cell-based. As to conditions: erythrocyte.
Data set [5] can be described thus: Apparent permeability across human Caco-2 cells in presence of BSA in basolateral chamber. Type of data set: ADME, cell-based.
Data set [6] in a line: Toxicity against rat erythrocytes assessed as decrease in hemolysis in presence of BSA. Type of data set: cell-based. As to conditions: erythrocyte.
Data set [7] is described as follows: Toxicity against rat erythrocytes assessed as induction of hemolysis at >= 1000 uM. The format is cell-based. As to conditions: erythrocyte.

The structures appear in SMILES notation.

Turning to `C=CC1=C(C)/C(=C/C2=NC(=C\c3[nH]c(/C=C4\NC(=O)C(C)=C4C=C)c(C)c3CCC(=O)N[C@H]3C(O)O[C@H](CO)[C@@H](O)[C@@H]3O)/C(CCC(=O)N[C@@H]3C(O)O[C@@H](CO)[C@H](O)[C@H]3O)=C2C)NC1=O` (some centres undefined) [BILIVERDIN DIGLUCOSAMINE], the Stability result (in data set [1]; with Caco-2) was “Stable” each time.
Usually Papp stands for the rate of passage across a membrane or cell layer, normalised by area and donor concentration. Take `C=CC1=C(C)/C(=C/C2=NC(=C\c3[nH]c(/C=C4\NC(=O)C(C)=C4C=C)c(C)c3CCC(=O)O)/C(CCC(=O)O)=C2C)NC1=O` [BILIVERDIN]: the Activity result in data set [2] and in data set [4] was “Non-toxic” each time. In addition, the values for the Papp in data set [3] and in data set [5] were 1.01 ×10⁻⁶ cm/s and 3.7 ×10⁻⁶ cm/s, respectively. Further, the Stability result (in data set [1]; with Caco-2) was “Stable” in each case.
`C=CC1=C(C)/C(=C/c2[nH]c(Cc3[nH]c(/C=C4\NC(=O)C(C)=C4C=C)c(C)c3CCC(=O)O)c(CCC(=O)O)c2C)NC1=O` [BILIRUBIN]: the Activity result is “Non-toxic” in data set [6] and “Toxic” in data set [7]. Besides, the figures for the apparent permeability (Papp) in data set [3] and in data set [5] were 0.02 ×10⁻⁶ cm/s and 1.04 ×10⁻⁶ cm/s, respectively. In addition, the Stability in data set [1] came to 0.33 %/min.
As to `C=CC1=C(C)/C(=C/c2[nH]c(Cc3[nH]c(/C=C4\NC(=O)C(C)=C4C=C)c(C)c3CCC(=O)NCCS(=O)(=O)O)c(CCC(=O)NCCS(=O)(=O)O)c2C)NC1=O` [BILIRUBIN DITAURATE], the Activity entry in data set [2] and in data set [4] was “Non-toxic” throughout. The apparent permeability (Papp) in data set [3] was 0.39 ×10⁻⁶ cm/s; in data set [5] it was 3.52 ×10⁻⁶ cm/s. For the same molecule, the Stability result (in data set [1]; in the data set on Caco-2) was “Stable” each time.

The record behind these values is ChEMBL document CHEMBL1157163, “In vitro permeability and metabolic stability of bile pigments and the effects of hydrophilic and lipophilic modification of biliverdin” (Bioorg Med Chem, 2008).
